Converted amounts (≈) assume the structure as drawn. One block for each compound: values may come before it. The source made the active and inactive calls. The calls are words filed in the database; no cut-off is given here.
Tests used:
[1] = test system: Trypanosoma brucei rhodesiense; experiment: Trypanocidal activity against Trypanosoma brucei rhodesiense KETRI243 after 48 hrs; format: functional, organism-based; settings: KETRI243, 48 h
[2] = test system: Trypanosoma brucei brucei; experiment: Trypanocidal activity against Trypanosoma brucei brucei EATRO after 48 hrs; format: functional, organism-based
[3] = test system: Trypanosoma brucei rhodesiense; experiment: Ratio of Kinact to Kiapp for Trypanosoma brucei rhodesiense AdoMetDC
[4] = test system: Trypanosoma brucei rhodesiense; experiment: Trypanocidal activity against Trypanosoma brucei rhodesiense KETRI2538 after 48 hrs; format: functional, organism-based; settings: KETRI2538, 48 h
[5] = test system: Trypanosoma brucei brucei; experiment: Trypanocidal activity against Trypanosoma brucei brucei EATRO infected in mouse assessed as mean survival time at 2 mg/kg, ip QD for 4 days; format: functional; settings: route intraperitoneal
[6] = test system: Trypanosoma brucei rhodesiense; experiment: Trypanocidal activity against Trypanosoma brucei rhodesiense KETRI1992 infected in mouse assessed as average survival time at 2 mg/kg, ip QD administered 24 hrs postinfection; format: functional; settings: route intraperitoneal
[7] = test system: Trypanosoma brucei rhodesiense; experiment: Trypanocidal activity against Trypanosoma brucei rhodesiense KETRI1992 infected in mouse assessed as protection against trypanosomal infection at 2 mg/kg, ip QD administered 24 hrs postinfection; format: functional, organism-based; design: dose 2 mg/kg
[8] = test system: Trypanosoma brucei rhodesiense; experiment: Trypanocidal activity against Trypanosoma brucei rhodesiense KETRI243 infected in mouse assessed as average survival time at 2 mg/kg, ip QD administered 24 hrs postinfection; format: functional; settings: route intraperitoneal
[9] = test system: Trypanosoma brucei rhodesiense; experiment: Trypanocidal activity against Trypanosoma brucei rhodesiense KETRI2002 infected in mouse assessed as protection against trypanosomal infection at 2 mg/kg, ip QD administered 24 hrs postinfection; format: functional, organism-based; design: dose 2 mg/kg
[10] = test system: Trypanosoma brucei rhodesiense; experiment: Trypanocidal activity against Trypanosoma brucei rhodesiense KETRI243 infected in mouse assessed as protection against trypanosomal infection at 2 mg/kg, ip QD administered 24 hrs postinfection; format: functional, organism-based; design: dose 2 mg/kg

- Activity [3]: 1.5 min⁻¹ M⁻¹
Structure (SMILES): CN(C/C=C\CN)C[C@H]1O[C@@H](n2cnc3c(N)ncnc32)[C@H](O)[C@@H]1O
- IC50 [1]: 0.02 µg/mL (≈ 0.0572 µM)
- IC50 [2]: 0.05 µg/mL (≈ 0.143 µM)
- IC50 [4]: 0.021 µg/mL (≈ 0.0601 µM)

Structure (SMILES): N=C(N)c1ccc(OCCCCCOc2ccc(C(=N)N)cc2)cc1 [PENTAMIDINE]
- MST [5]: >35 days
- MST [6]: 18 days
- Activity [7]: inactive
- MST [8]: 11.6 days
- Activity [9]: Active
- Activity [10]: inactive

Reference: ChEMBL document CHEMBL1649532, “Trypanocidal activity of 8-methyl-5'-{[(Z)-4-aminobut-2-enyl]-(methylamino)}adenosine (Genz-644131), an adenosylmethionine decarboxylase inhibitor” (Antimicrob Agents Chemother, 2009)
